{
  "source": "patent US20130004966A1",
  "about": "“STRUCTURE OF CYTOKININS AND CYTOKININ RECEPTORS, AND MODULATION OF CYTOKININ SIGNALING” (Salk Institute for Biological Studies (027731), priority 2011, published 2013)",
  "key": {"[1]": {"experiment": "Crystallization of purified AHK4 in the presence of tZr (difference density in ligand binding pocket)", "assay_type": "physicochemical", "conditions": "no difference density for the ribose portion of tZr in the crystal complex", "text": "Protein Expression and Purification. A synthetic gene comprising the sensor domain of AHK4 (residues 126-395, numbering in accordance with the short splice-variant of AHK4) was codon-optimised for expression in E. coli (Geneart, Regensburg, Germany). The Ncol/Notl digested synthetic fragment was inserted into a modified pET21d (Novagen) plasmid providing N-terminal 7xHis and Strep II affinity tags and expressed as a SUMO fusion protein in E. coli Origami (DE3) cells (Novagen). Cells grown to an OD600nm of 0.8 were induced with 0.3 mM isopropyl-β-D-thiogalactopyranoside in Terrific Broth at 16° C. for 22 h. Cells were collected by centrifugation at 4,500 xg for 30 min, washed in PBS buffer, incubated with 100 mg lysozyme for 1 h at room temperature and snap-frozen in liquid nitrogen. For protein purification cells were thawn in buffer A (25 mM Tris, pH 7.6, 500 mM NaCl, 15 mM Imidazole and, if applicable, 0.1 mM of the respective cytokinin), lysed by sonication, and centrifuged at 75,000 xg for 90 min. The supernatant was incubated in batch with 5 mL HIS-Select Cobalt Affinity Gel (Sigma), washed with buffer A and eluted in buffer A supplemented with 200 mM imidazole. The fusion protein was dialysed against buffer B (25 mM Tris, pH 8.0, 300 mM NaCl, 1 mM EDTA) and then loaded onto a 1 mL Strep-Tactin Superflow high capacity cartridge (IBA, Gottingen, Germany). […]"}, "AHK4": {"target": "T1, AHK4 (Arabidopsis thaliana, UniProt Q9C5U0)", "T1 construct": "host or cells: E. coli", "T1 sequence (Q9C5U0 24-1080 limits assumed)": "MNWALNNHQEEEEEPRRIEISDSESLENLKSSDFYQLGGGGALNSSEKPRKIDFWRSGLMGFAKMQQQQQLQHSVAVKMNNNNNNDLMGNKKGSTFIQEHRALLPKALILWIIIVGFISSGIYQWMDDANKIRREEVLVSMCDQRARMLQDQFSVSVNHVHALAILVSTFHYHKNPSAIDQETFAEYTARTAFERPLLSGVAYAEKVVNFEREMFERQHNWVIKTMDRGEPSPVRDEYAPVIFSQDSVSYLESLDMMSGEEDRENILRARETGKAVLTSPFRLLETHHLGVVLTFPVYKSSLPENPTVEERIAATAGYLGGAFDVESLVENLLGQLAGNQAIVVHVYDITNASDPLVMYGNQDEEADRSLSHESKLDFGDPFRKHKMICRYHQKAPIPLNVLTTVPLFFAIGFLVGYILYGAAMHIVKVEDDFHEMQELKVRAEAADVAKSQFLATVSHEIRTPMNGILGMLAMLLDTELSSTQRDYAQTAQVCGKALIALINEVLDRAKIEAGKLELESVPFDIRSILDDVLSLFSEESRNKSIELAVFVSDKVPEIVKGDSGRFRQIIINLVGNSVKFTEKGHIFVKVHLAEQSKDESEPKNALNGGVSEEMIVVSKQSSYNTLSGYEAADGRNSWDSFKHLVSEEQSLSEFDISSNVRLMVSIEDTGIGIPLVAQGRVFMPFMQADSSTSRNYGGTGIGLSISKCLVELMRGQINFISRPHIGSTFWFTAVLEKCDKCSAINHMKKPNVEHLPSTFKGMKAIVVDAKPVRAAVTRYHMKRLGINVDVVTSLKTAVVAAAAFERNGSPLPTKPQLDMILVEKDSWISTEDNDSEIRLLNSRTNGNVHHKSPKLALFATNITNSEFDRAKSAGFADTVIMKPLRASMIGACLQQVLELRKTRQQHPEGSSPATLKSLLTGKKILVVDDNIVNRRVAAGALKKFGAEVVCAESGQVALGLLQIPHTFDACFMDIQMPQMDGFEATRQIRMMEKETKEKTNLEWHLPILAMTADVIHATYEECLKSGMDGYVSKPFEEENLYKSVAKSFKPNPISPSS", "conditions": "literature result, Romanov et al., J. Exp. Bot. 57:4051-4058 (2006); cited from earlier work"}},
  "data": [
    {"smiles": "C/C(=C\\CNc1ncnc2c1ncn2[C@@H]1O[C@H](CO)[C@@H](O)[C@H]1O)CO", "note": "(relative stereo) [tZr, trans-zeatin riboside]", "values": [
      {"measurement": "stability of ligand during purification with AHK4", "setting": "[1]", "value": "underwent hydrolysis during purification"},
      {"measurement": "binding affinity to AHK4", "setting": "AHK4", "value": "high affinity"}
    ]}
  ]
}
